In series [1] the test system is Isoproterenol-Tachycardie. Put plainly: ß-sympatholytic effect: inhibition of isoproterenol-induced tachycardia in despinalised rats. Format: in vivo. The following applies: Rattus norvegicus, iv, 5 min, read-out: ß-Sympatholytische Wirkung Ratte i.v. ED 50 %. As to the method:
ß-sympatholytische Wirkung: • An despinalisierten Ratten (Stamm: Sprague Dawley, männlich, Gewicht 200 bis 240 g) verursacht Isoproterenol (0,1/ug/kg intravenös) Herfrequenzsteigerungen um durchschnittlich 121 + 2,1 min bei einer Ausgangsfrequenz von 268 + 3,9 min^-1 (Anzahl der Tiere N = 100). ß-Sympatholytika hemmen diese Frequenzsteigerungen spezifisch und dosisabhängig. Die Applikation der getesteten Substanzen erfolgt 5 min vor der Isoproterenolgabe.
Als ED 50 % werden die Dosen ermittelt, welche die Isoproterenol-Tachycardie um 50 % hemmen.
Als Referenzsubstanz dient das bekannte ß-Sympatholytikum Propranolol.

The test system of series [2] is mittleren Carotisdruck. Put plainly: Blood-pressure-lowering effect in the anaesthetised rat (urethane), carotid pressure. Format: in vivo, Ratte. The following applies: i.v.; for ED20: Rattus norvegicus, iv, Sprague Dawley rats under urethane anaesthesia, dose lowering mean carotid pressure by 20 %, read-out: Blutdrucksenkende Wirkung Ratte i.v. ED 20 %. An excerpt:
Blutdrucksenkende Wirkung an der narkotisierten Ratte: • Zur Feststellung der blutdrucksenkenden Wirkung erhalten männliche Ratten (Stamm: Sprague Dawley, Gewicht: 230 bis 280 g) in Urethan-Narkose (1,78 g/kg intraperitoneal) die Prüfsubstanzen intravenös appliziert. Die Messung des Blutdruckes in der Aorta carotis erfolgt über Statham--Transducer.
Als ED 20 % wird die Dosis ermittelt, welche den mittleren Carotisdruck um 20 % senkt.

Series [3] in a line: in vivo. Conditions: for LD50: mouse, ip.
The mark [4] stands for this setting: despinalised Sprague Dawley rats, i.v., given 5 min before isoproterenol 0,1 µg/kg i.v., dose inhibiting tachycardia by 50 %.

The structures appear in SMILES notation. Like-named read-outs stand apart in the source and are kept apart here.

Turning to `COCc1cc(C=Cc2ccccc2OCC(O)CNC(C)C)on1` (stereo not drawn) [Beispiel 3, 3-Methoxymethyl-5-[2-(2-hydroxy-3-isopropylamino-propoxy)--styryl]-isoxazol], in series [1] (setting [4]), the ED50 was determined as 0.0064 mg/kg. Further, the ED20 in series [2] amounted to 1 mg/kg. In addition, in series [3], the selectivity ratio stood at 18900 and the LD50 stood at 121 mg/kg.
Take `CC(C)NCC(O)COc1cccc2ccccc12` (stereo not drawn) [Propranolol, reference compound]: the ED50 in series [1] worked out at 0.0127 mg/kg. Also, the “Blutdrucksenkende Wirkung” value in series [2] (rat, up to a dose of 2,15 mg/kg) is “senkt den Blutdruck bis zu einer Dosis von 2,15 mg/kg nicht”.
As for `COCc1cc(C=Cc2ccccc2OCC(O)CNC(C)(C)C)on1` (stereo not drawn) [Beispiel 4, 3-Methoxymethyl-5-[2-(2-hydroxY-3-tert.-butylamino-prop-oxy)-styryl]-isoxazol], the ED50 in series [1] (setting [4]) stood at 0.00742 mg/kg. The ED20 in series [2] was found to be 1 mg/kg. In series [3], the selectivity ratio stood at 13500 and the LD50 was determined as 100 mg/kg.
Turning to `Cc1noc(C=Cc2ccccc2OCC(O)CNC(C)(C)C)c1Cl` (stereo not drawn) [Beispiel 16, 4-Chlor-3-methyl-5-[2-(2-hydroxy-3-tert.-butylamino-prop-oxy)-styryl]-isoxazol], in series [1] (setting [4]), the ED50 turned out to be 0.01 mg/kg. Besides, the ED20 in series [2] is 1 mg/kg. In series [3], the selectivity ratio was found to be 14700 and the LD50 came to 147 mg/kg.
Turning to `Cc1noc(C=Cc2ccccc2OCC(O)CNC(C)C)c1Cl` (stereo not drawn) [Beispiel 17, 4-Chlor-3-methyl-5-[2-(2-hydroxy-3-isopropylamino-prop-oxy)-styryl]-isoxazol], the ED50 in series [1] (setting [4]) came out at 0.00681 mg/kg. Moreover, the ED20 in series [2] is 1.95 mg/kg. Besides, in series [3], the selectivity ratio stood at 75000 and the LD50 is 511 mg/kg.
For the compound `COCc1cc(C=Cc2ccccc2OCC(O)CNC2CC2)on1` (stereo not drawn) [Beispiel 9, 5-[2-(2-Hydroxy-3-cyclopropylamino-propoxy)-styryl]-3-methoxymethyl-isoxazol], in series [1] (setting [4]), the ED50 is 0.01 mg/kg. Moreover, in series [3], the selectivity ratio is 12100 and the LD50 was found to be 121 mg/kg.

The term LD50 denotes the dose expected to kill half of the subjects tested. Lower therefore signals a more toxic substance.

(Values after patent EP0034754A1, “2-((3-amino-2-hydroxy-propoxy)-styryl) isoxazoles, process for their preparation and pharmaceutical compositions containing them” (BASF Aktiengesellschaft, priority 1980, dated 1981).)
